What was measured:
CCRF/CEM cells [1] = assay: SRB assay (total protein content), CCRF/CEM; format: cell-based; settings: Homo sapiens, 48 h incubation
Procedure: The anticancer activity of tested compounds was assessed on five human cell lines selected from the panel of tumor cell lines recommended by the National Cancer Institute: A495 (lung carcinoma), CCRF/CEM (acute lymphoblastic leukemia), LoVo and LoVo/DX (two types of colorectal: non-resistant and resistant to doxorubicin), and MCF-7 (breast adenocarcinoma). In addition, the NHDF cell line (normal human dermal fibroblasts) was used to estimate cytotoxicity to noncancer cells. The A549, CCRF/CEM, LoVo, LoVo/DX, and MCF-7 cells were obtained from ECACC, and NHDF cells from LONZA, Belgium. The A549 and MCF-7 cells were grown in EMEM medium, CCRF/CEM cells in RPMI-1640, LoVo and LoVo/DX cells in DMEM/F-12, and NHDF cells in DMEM without phenol red. The cells were seeded in […] in the biological assay, as recommended by the National Cancer Institute. All culture media were supplemented with L-glutamine, penicillin, streptomycin, and 10% fetal bovine serum (FBS). Cells were incubated at 37 °C and 5% CO2. One of the most popular in vitro tests to evaluate the activity of compounds with potential antitumor activity is the SRB assay. The sulforhodamine B dye is used, which binds to the protein at the appropriate pH. The assay allows for assessing cell mass and, indirectly, their proliferation. The advantage of the assay is that it measures cellular protein content and not the activity of any enzymes. The SRB assay was carried out according to the National Cancer Institute procedure. Cells were incubated in a culture medium for 24 h in 96-well plates. After 24 h, the control plate for each cell line was fixed with TCA to evaluate cell culture before treatment with tested compounds. […] Cell cultures were then fixed by adding 50% TCA at 4 °C for 1 h. After removing the supernatant, the plates were washed with water and dried. […] Growth inhibition was calculated following the NCI guidelines and expressed as the GI50 ratio, i.e., the concentration of the compound in which the amount of protein was reduced by half compared with the control.

A549 cells = assay: MTT assay (mitochondrial activity), A549; format: cell-based; settings: Homo sapiens
Procedure: (§1) The anticancer activity of tested compounds was assessed on five human cell lines selected from the panel of tumor cell lines recommended by the National Cancer Institute: A495 (lung carcinoma), CCRF/CEM (acute lymphoblastic leukemia), LoVo and LoVo/DX (two types of colorectal: non-resistant and resistant to doxorubicin), and MCF-7 (breast adenocarcinoma). In addition, the NHDF cell line (normal human dermal fibroblasts) was used to estimate cytotoxicity to noncancer cells. The A549, CCRF/CEM, LoVo, LoVo/DX, and MCF-7 cells were obtained from ECACC, and NHDF cells from LONZA, Belgium. The A549 and MCF-7 cells were grown in EMEM medium, CCRF/CEM cells in RPMI-1640, LoVo and LoVo/DX cells in DMEM/F-12, and NHDF cells in DMEM without phenol red. The cells were seeded in […] in the biological assay, as recommended by the National Cancer Institute. All culture media were supplemented with L-glutamine, penicillin, streptomycin, and 10% fetal bovine serum (FBS). Cells were incubated at 37 °C and 5% CO2. An assessment of the mitochondrial cell activity after applying tested compounds was carried out using the test MTT assay, recommended in the ISO 10993-5:2009 standard. As in the SRB assay, the cells were exposed to tested compounds after 24 h of initial incubation in 96-well plates. The MTT solution (1 mg/mL) was added to each well, and cells were incubated for 2 h. Finally, the supernatant was removed, and the formazan crystals were dissolved in isopropanol. After 30 min, absorbance at 570 nm in Victor2 microplate reader (PerkinElmer). Cell viability was determined as the IC50 ratio, i.e., the concentration of the compound in which the viability was reduced by half compared with the control.

LoVo/DX cells = assay: MTT assay (mitochondrial activity), LoVo/DX; format: cell-based; settings: Homo sapiens, LoVo/DX cells (doxorubicin-resistant)
Procedure: as §1

NHDF cells = assay: MTT assay (mitochondrial activity), NHDF; format: cell-based; settings: Homo sapiens, NHDF normal cells
Procedure: as §1

CCRF/CEM cells [2] = assay: Evaluation of the cell cycle (Tali Cell Cycle Kit); format: cell-based, human; settings: for cell cycle effect: after exposure
Procedure: It is expected that tested compounds affect cell division processes (intense in cancer). Therefore, the effect of compounds on the cell cycle was assessed by quantifying the content of cellular DNA in CCRF/CEM cells with Tali Cell Cycle Kit (Invitrogen). Cells were prepared by 24 h initial incubation in RPMI-1640 medium followed by the addition of tested compounds for a further 24 h. Subsequently, cells were harvested, centrifuged, washed, dissolved in PBS, and centrifuged again. After removing PBS, the cells were resuspended in Tali Cell Cycle Solution and incubated for 20 min in the dark at RT. Finally, the cells were transferred to the Tali Cellular Analysis Slides and analyzed using an image-based cytometer Arthur (NanoEnTek Inc.).

CCRF/CEM cells [3] = system: CCRF/CEM cells; set-up: method as in PMID 11755121; settings: 48 h exposure; cited from earlier work
pancreatic cancer cells = system: pancreatic cancer cells; set-up: method as in PMID 10737712; settings: 1 μM; cited from earlier work
MV4–11 cells = system: MV4–11 cells; set-up: method as in PMID 25107543; settings: 5 μM; cited from earlier work

| Compound | GI50 (CCRF/CEM cells [1]) [µM] | IC50 (A549 cells) [µM] | IC50 (LoVo/DX cells) [µM] | IC50 (NHDF cells) [µM] | cell cycle effect (CCRF/CEM cells [2]) | IC50 (CCRF/CEM cells [3]) [µM] | cell cycle effect (pancreatic cancer cells) | cell cycle effect (MV4–11 cells) | cell cycle inhibition at lower concentrations (CCRF/CEM cells [2]; 0.2 µM and 0.5 µM) |
| --- | --- | --- | --- | --- | --- | --- | --- | --- | --- |
| Cc1c2ccncc2c(C)c2c1[nH]c1ccccc12 [Ellipticine] | 0.77 ± 0.17 | 12.9 ± 2.36 | 15.1 ± 1.73 | 8.98 ± 1.44 | blockade of the cell cycle in the G0/G1 phase | 4.7 ± 0.48 | arrest cell cycle progression in both G1 and G2/M phases | arrest of the cell cycle at the G2/M checkpoint | – |
| Cc1nccc2c(C)c3[nH]c4ccccc4c3cc12 [Olivacine, 1,5-dimethyl-6H-pyrido[4,3-b]carbazole] | 0.81 ± 0.14 | 17.8 ± 7.82 | 26.3 ± 4.64 | 15.3 ± 1.95 | blockade of the cell cycle in the G0/G1 phase | – | – | – | No cell cycle inhibition |
